Laboratory results taken from ChEMBL document CHEMBL1148021, “(Arylpiperazinyl)cyclohexylsufonamides: discovery of alpha(1a/1d)-selective adrenergic receptor antagonists for the treatment of Benign Prostatic Hyperplasia/Lower Urinary Tract Symptoms (BPH/LUTS)” (Bioorg Med Chem Lett, 2007).

How the values were obtained:
[1] = target: T1, Alpha-1A adrenergic receptor (Homo sapiens, UniProt P35348); assay: Binding affinity to human cloned adrenergic alpha-1A receptor
T1 sequence (P35348 whole entry): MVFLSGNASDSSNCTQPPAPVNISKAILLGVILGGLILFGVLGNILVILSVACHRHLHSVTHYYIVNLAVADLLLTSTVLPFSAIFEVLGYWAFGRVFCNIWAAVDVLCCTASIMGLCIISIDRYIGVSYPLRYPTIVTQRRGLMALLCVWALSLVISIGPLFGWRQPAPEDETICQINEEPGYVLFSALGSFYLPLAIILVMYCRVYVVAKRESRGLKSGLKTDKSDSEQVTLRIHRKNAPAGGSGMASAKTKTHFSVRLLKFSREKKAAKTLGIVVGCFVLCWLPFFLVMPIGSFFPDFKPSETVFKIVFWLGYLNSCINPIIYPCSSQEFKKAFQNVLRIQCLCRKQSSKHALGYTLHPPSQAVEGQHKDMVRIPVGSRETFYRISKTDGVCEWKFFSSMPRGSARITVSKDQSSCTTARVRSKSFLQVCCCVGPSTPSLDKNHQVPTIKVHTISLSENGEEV

[2] = target: T2, Alpha-1B adrenergic receptor (Homo sapiens, UniProt P35368); assay: Binding affinity to human cloned adrenergic alpha-1B receptor
T2 sequence (P35368 whole entry): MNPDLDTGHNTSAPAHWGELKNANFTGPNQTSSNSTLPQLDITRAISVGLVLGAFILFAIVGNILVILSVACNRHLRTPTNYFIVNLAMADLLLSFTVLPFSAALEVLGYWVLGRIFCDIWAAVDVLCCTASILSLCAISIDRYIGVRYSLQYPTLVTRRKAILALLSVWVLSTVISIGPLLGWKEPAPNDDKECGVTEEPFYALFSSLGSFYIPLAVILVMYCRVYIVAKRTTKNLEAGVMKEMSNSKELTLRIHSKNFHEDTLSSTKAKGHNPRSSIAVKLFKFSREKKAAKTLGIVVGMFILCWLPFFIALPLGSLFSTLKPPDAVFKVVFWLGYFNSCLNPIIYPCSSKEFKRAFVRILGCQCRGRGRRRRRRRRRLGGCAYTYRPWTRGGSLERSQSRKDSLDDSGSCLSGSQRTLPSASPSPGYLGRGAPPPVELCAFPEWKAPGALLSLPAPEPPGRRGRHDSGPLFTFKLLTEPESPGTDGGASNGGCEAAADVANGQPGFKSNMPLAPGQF

[3] = target: D(2) dopamine receptor (Homo sapiens, UniProt P14416); assay: Binding affinity to human dopamine D2 receptor
[4] = target: T3, Alpha-1D adrenergic receptor (Homo sapiens, UniProt P25100); assay: Binding affinity to human cloned adrenergic Alpha-1D receptor
T3 sequence (P25100 whole entry): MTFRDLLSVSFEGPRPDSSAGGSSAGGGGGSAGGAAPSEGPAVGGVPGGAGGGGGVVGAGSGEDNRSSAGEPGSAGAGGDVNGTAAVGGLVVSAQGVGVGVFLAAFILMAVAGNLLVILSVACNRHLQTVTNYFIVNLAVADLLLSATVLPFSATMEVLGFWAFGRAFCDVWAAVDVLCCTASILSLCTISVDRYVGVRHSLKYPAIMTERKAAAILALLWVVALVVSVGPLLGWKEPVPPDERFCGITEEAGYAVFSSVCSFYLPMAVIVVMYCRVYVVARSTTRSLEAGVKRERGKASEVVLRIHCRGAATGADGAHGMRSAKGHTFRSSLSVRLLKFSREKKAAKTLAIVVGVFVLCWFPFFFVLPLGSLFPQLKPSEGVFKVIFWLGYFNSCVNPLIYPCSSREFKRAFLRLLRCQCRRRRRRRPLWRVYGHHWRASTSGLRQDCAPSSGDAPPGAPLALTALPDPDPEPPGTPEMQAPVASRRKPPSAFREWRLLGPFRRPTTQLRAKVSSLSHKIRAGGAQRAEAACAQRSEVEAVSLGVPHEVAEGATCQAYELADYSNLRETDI

Chain of D(2) dopamine receptor (P14416 whole entry): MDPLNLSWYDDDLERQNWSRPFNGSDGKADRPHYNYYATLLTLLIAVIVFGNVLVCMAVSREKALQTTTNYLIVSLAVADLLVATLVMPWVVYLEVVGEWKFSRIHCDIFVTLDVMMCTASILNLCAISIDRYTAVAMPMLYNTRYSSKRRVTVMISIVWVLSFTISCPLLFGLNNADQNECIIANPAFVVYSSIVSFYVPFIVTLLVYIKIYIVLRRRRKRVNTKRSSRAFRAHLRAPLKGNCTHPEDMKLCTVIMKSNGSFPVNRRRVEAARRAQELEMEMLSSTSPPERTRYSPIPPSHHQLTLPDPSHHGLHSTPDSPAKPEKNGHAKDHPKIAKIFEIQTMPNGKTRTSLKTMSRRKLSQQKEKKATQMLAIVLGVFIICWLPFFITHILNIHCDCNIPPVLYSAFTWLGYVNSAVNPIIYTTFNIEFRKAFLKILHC

Ki [1] [nM]	Ki [2] [nM]	Ki [3] [nM]	Ki [4] [nM]	SMILES
189	364	123	64	COc1ccc(S(=O)(=O)N[C@H]2CC[C@@H](N3CCN(c4ccccc4OCC4CC4)CC3)CC2)cc1OC
18	162	110	7	COc1ccc(C)cc1S(=O)(=O)N[C@H]1CC[C@@H](N2CCN(c3ccccc3OC(C)C)CC2)CC1
45	1860	356	15	CC(C)Oc1ccccc1N1CCN([C@H]2CC[C@@H](NS(=O)(=O)c3cc(Cl)ccc3F)CC2)CC1
